Experimental data as given in patent US4762852A, “Benzodioxepanne, process for the synthesis thereof and use thereof” (Societe d'Etudes Scientifiques et Industrielles de l'Ile de …, priority 1985, dated 1988).
Where two headings read alike, the source gives them in different places.

Legend:
[1] = system: stereotypies caused in rats by apomorphine; assay: antagonism of stereotypies caused in rats by 0.5 mg/kg subcutaneous apomorphine (Europ. J. Pharmacol., 50, 291-300, 1978); assay type: in vivo; details: rat
Experimental: (2) The compound of the invention was a powerful anti-dopaminergic agent at the level of the central nervous system. Indeed, in the test in respect of stereotypies caused in rats by apomorphine, a dopaminergic agonistic agent, the compound antogonized that behavioral response at very low levels. Thus, when stereotypies were caused by 0.5 mg/kg of subcutaneous apomorphine, the inhibitor-50 dose of the compound was 0.52 mg/kg intraperitoneally. This test was conducted in accordance with the procedure in Europ. J. Pharmacol., 50, pp. 291-300 (1978). […] The reference compound is disclosed in U.S. Pat. Nos. 4,186,135 (Example 43) and 4,248,885. In another test, the inhibitor doses 50 of the compound were evaluated according to Europ. J. Pharm. 50, pp. 291-300 (1978), the compound being administered at different times (15, 30, 60, 120 and 360 minutes) prior to administration of the agonistic agent, in this case apomorphine, in a dose of 0.5 mg/kg subcutaneous. It is thus possible to judge the power of the antagonism produced by the compound at those different times and also to evaluate the duration of the effect of the compound. […] Catalepsy appeared in fact, 11 minutes after subcutaneous injection of the compound and lasted for more than 5 hours and up to 12 hours in a rat, depending on the method of observation of the phenomenon.

[2] = system: stereotypies caused in rats by apomorphine; assay: antagonism of stereotypies caused by 1.25 mg/kg intravenous apomorphine (Arzn. Forsch. 10, 1003-1005, 1960); assay type: in vivo; details: compound subcutaneous, apomorphine 1.25 mg/kg intravenous; for ED50: Rattus norvegicus, sc, read-out: ID50, apomorphine stereotypies
Source text: (2) The compound of the invention was a powerful anti-dopaminergic agent at the level of the central nervous system. Indeed, in the test in respect of stereotypies caused in rats by apomorphine, a dopaminergic agonistic agent, the compound antogonized that behavioral response at very low levels. […] […] […] The reference compound is disclosed in U.S. Pat. Nos. 4,186,135 (Example 43) and 4,248,885.

[3] = system: stereotypies caused in a rat by amphetamine; assay: antagonism of stereotypies caused in a rat by amphetamine, 10 mg/kg intravenous (Arz. Forsch. 11, 932-938, 1961); assay type: in vivo; details: sc
rat [4] = assay: cataleptigenic effect (Arz. Forsch. 12, 964-968, 1962); assay type: in vivo; details: sc, subcutaneous
Experimental: (§1) The cataleptigenic dose 50, as determined in accordance with Arz. Forsch. 12, pp. 964-968 (1962), was 5.3 mg/kg subcutaneously in a rat. Another test gave a value which was slightly higher, 8.5 mg/kg subcutaneous, also in a rat.

[5] = target: dopaminergic D2 receptors (Homo sapiens, UniProt P14416); assay: in-vitro binding to dopaminergic D2 receptors, ligand 3H-spiperone; details: read-out: IC50, D2 receptor binding
Source text: (1) The compound bound very strongly in-vitro to dopaminergic D2 receptors.

D1 receptor = D1 receptor (Homo sapiens, UniProt P21728); assay: in-vitro binding to D1 receptor against 3H-piflutixol; details: second of two values
partition coefficient = assay type: physicochemical
solubility = assay type: physicochemical
[6] = system: stereotypies in relation to amphetamine in a rat; assay: antagonism of amphetamine stereotypies in a rat, amphetamine injected intraperitoneally; assay type: in vivo; details: read-out: ID50, amphetamine stereotypies
rat [7] = assay: cataleptigenic effect, another test; assay type: in vivo; details: sc, subcutaneous, read-out: cataleptigenic dose 50
Experimental: as §1

rat [8] = assay: kinetics of the cataleptigenic effect; assay type: in vivo; details: after subcutaneous injection
Experimental: In another test, the inhibitor doses 50 of the compound were evaluated according to Europ. J. Pharm. 50, pp. 291-300 (1978), the compound being administered at different times (15, 30, 60, 120 and 360 minutes) prior to administration of the agonistic agent, in this case apomorphine, in a dose of 0.5 mg/kg subcutaneous. It is thus possible to judge the power of the antagonism produced by the compound at those different times and also to evaluate the duration of the effect of the compound. […] Catalepsy appeared in fact, 11 minutes after subcutaneous injection of the compound and lasted for more than 5 hours and up to 12 hours in a rat, depending on the method of observation of the phenomenon.

[9] = system: spontaneous motility of a mouse; assay: reduction of spontaneous motility of a mouse, photoelectric method (J. Pharm. Exp. Ther. 101, 156-162, 1951); assay type: in vivo; details: intraperitoneal; for ED50: ip
Experimental: (§2) Exp. Ther. 101, pp. 156-162 (1951).
The kinetics of the inhibitor effect of the compound were studied in mice by evaluation of the inhibitor doses 50 at different distances from intraperitoneal injection of the compound. The procedure used was the photoelectric method described in J. Pharm. Exp. Ther. 101, pp. 156-162 (1951). […] Then, the variation in the ID50 between 0.55 and 0.9 indicated persistence of the effect up to 5 hours. The effect then became less clear, but could still be observed more than 5 hours after administration, which is in accordance with the duration attributed to the cataleptigenic effect.

[10] = system: spontaneous motility of a mouse; assay: reduction of spontaneous motility of a mouse, Activograph Method; assay type: in vivo; details: ip, intraperitoneal, read-out: ID50, reduction of spontaneous motility
Source text: as §2

vigilance = vigilance of treated animals at higher neuroleptic doses; assay type: in vivo; details: higher neuroleptic doses which reduce motor function
Experimental: The compound of the invention has the pharmacological characteristics of a powerful neuroleptic, acting rapidly and in a long-term fashion, and, consequently, can be applied in states of agitation of acute and chronic psychoses. For this and other purposes the daily therapeutic dosage can be from about 5 to 50 mg/day in one or more doses, depending upon the severity of the psychoses. The compound of the invention can be administered in any number of conventional forms such as capsules, tablets, pills, in granulated form or as an injectable solution. Many methods for compounding these preparations are well-known to the art. Substances (or carriers) which are inert relative to the compounds of the invention can be used in these preparations, such as lactose, magnesium stearate, starch, talc, cellulose, levilite, alkali metal lauryl-sulphates, saccharose and other vehicles and carriers commonly employed in pharamaceutical preparations. The examples which follow illustrate several possible pharmaceutical preparations.

[11] = ip, compound intraperitoneal, apomorphine 0.5 mg/kg subcutaneous, read-out: inhibitor-50 dose (ID50), apomorphine stereotypies

Chain of D1 receptor (P21728 whole entry): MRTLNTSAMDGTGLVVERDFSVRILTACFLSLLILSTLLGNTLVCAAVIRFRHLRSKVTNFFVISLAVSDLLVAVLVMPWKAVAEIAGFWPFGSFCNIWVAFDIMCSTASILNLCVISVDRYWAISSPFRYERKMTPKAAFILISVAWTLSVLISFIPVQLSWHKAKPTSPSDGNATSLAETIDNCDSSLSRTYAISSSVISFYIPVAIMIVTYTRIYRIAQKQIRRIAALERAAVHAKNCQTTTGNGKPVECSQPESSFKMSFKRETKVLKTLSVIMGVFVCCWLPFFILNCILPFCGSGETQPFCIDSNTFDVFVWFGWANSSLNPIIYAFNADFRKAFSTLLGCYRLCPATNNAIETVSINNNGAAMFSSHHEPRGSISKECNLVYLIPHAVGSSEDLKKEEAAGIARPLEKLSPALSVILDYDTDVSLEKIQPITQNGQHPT
Chain of dopaminergic D2 receptors (P14416 whole entry): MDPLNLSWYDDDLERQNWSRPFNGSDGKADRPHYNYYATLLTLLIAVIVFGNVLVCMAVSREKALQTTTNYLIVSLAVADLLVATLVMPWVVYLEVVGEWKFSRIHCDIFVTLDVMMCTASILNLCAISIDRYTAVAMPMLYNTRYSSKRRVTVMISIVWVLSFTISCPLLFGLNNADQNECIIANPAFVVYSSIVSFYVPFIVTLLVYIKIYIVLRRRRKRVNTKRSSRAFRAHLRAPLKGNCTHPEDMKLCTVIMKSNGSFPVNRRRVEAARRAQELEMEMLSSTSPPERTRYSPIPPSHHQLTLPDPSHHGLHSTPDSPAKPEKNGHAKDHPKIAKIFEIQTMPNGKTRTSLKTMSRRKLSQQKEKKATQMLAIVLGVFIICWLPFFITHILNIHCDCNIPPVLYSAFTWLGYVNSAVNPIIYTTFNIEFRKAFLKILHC

CCN1CCCC1CNC(=O)c1cc(S(=O)(=O)CC)cc2c1OCCCO2 (stereo not shown) [reference compound, N-(1-ethyl-2-pyrrolidinylmethyl) 8-ethylsulphonyl-1,5-benzodioxepanne-6-carboxamide, reference compound]
ED50 [1, 11]: 36.4 mg/kg | ED50 [2]: 156 mg/kg | ED50 ([3]; Rattus norvegicus, subcutaneous, amphetamine route and dose not stated, read-out: ID50, amphetamine): 39.4 mg/kg | ED50 (rat [4]; Rattus norvegicus, which of the two catalepsy tests is not stated, read-out: ED50, cataleptigenic effect): 59.5 mg/kg

CCS(=O)(=O)c1cc2c(c(C(=O)NCC3CCCN3CC3=CCCCC3)c1)OCCCO2 (stereo not shown) [compound of the invention, N-(1-cyclohexenylmethyl-2 pyrrolidylmethyl)-8-ethylsulphonyl-1,5-benzodioxepanne 6-carboxamide]
IC50 [5]: 0.00316 µM | IC50 (D1 receptor): 63.1 µM | logP (partition coefficient): 0.519 | solubility in dilute acids (solubility; dilute acids): Soluble | solubility in cold ethyl acetate (solubility; ethyl acetate, cold): soluble when cold in 30 volumes | solubility in hot ethyl acetate (solubility; hot ethyl acetate (2 volumes)): Highly soluble | solubility in hot methanol (solubility; hot methanol (2 volumes)): Highly soluble | solubility in cold methanol (solubility; methanol, cold): very weakly soluble | ED50 [1, 11]: 0.52 mg/kg | ED50 ([1]; sc, 0.25 h, compound subcutaneous 15 minutes before apomorphine 0.5 mg/kg subcutaneous, read-out: ID50, apomorphine stereotypies, 15 minutes after injection): 0.066 mg/kg | ED50 ([1]; sc, compound subcutaneous, apomorphine 0.5 mg/kg subcutaneous, read-out: ID50, apomorphine stereotypies): 0.039 mg/kg | ED50 [2]: 0.092 mg/kg | ID50, apomorphine stereotypies ([2]; rat): 0.082 mg/kg | ED50 ([3]; rat, compound subcutaneous, amphetamine 10 mg/kg intravenous, read-out: inhibitor dose 50 (ID50), amphetamine stereotypies): 0.062 mg/kg | ED50 ([6]; ip, amphetamine intraperitoneal, other experimental conditions): 0.4 mg/kg | ED50 ([6]; sc, compound subcutaneous, action already found at the 12th minute): 0.4 mg/kg | ED50 (rat [4]; rat, read-out: cataleptigenic dose 50): 5.3 mg/kg | ED50 (rat [7]): 8.5 mg/kg | time to appearance of catalepsy (rat [8]): 11 min | time after administration at which inhibitor effect on motility could still be observed [9]: more than 5 hours | ED50 ([9]; 5 min, 5 minutes after injection, read-out: ID50, reduction of motility after 5 minutes): 0.69 mg/kg | ED50 ([9]; photoelectric method, read-out: ID50, reduction of spontaneous motility): 0.58 mg/kg | ED50 [10]: 0.93 mg/kg | vigilance at higher neuroleptic doses (vigilance): retain a certain degree of vigilance
